Reference: patent US20060241084A1, “Inhibition of vascular endothelial growth factor” (THE HOSPITAL FOR SICK CHILDREN, priority 2002, published 2006)

What was measured:
[1] = CR-4 dependent inhibition of VEGF secretion from cell lines (VEGF-165 ELISA of medium); assay type: cell-based; conditions: Homo sapiens; all cell lines; 10^6 cells/ml incubated 5 hrs with compound, washed, fresh medium 24 hrs; FIGS. 1 to 4
Procedure: VEGF secretion from the breast cancer cell lines HTB-133 (KDR+), HTB-131 (KDR−) and MDA-231, HTB-181 prostate cancer cell line, HTB-72 melanoma cell line, CR2-1730 human umbilical vascular endothelial (HUV-EC-C) cell line and normal HUVEC primary cells was measured as follows.
Medium was collected and analysed for the presence of VEGF using VEGF-165 ELISA kit (R&D Systems).
CR-4 dependent inhibition of VEGF secretion from breast, prostate, melanoma and HUVEC cell lines.
10^6 cells/ml of each cell lines were incubated for 5 hrs. with various concentrations of CR-4. Cells were washed twice in PBS to remove CR4 and fresh medium was added for 24 hrs. Medium was collected and analysed for the presence of VEGF using VEGF-165 ELISA kit (R&D Systems).

[2] = test system: HUVEC; experiment: Inhibition of HUVEC growth by CR-4 induced VEGF depleted media of breast cancer cell lines ([3H]-Thymidine incorporation); assay type: cell-based, human; conditions: FIG. 5
Procedure: CR-4 dependent inhibition of VEGF secretion results in the inhibition of HUVEC growth.
After an incubation for 5 hrs. with various concentrations of CR-4 the wells were washed twice and fresh HUVEC medium was added for 24 hrs. This medium with or without 10 ng/ml of recombinant VEGF was then transferred to parallel wells containing 10^5 cells/ml of HUVEC that were plated and grown in HUVEC medium for 24 hrs. Radioactive labelled [^3H]-Thymidine was added to HUVEC wells over night. Cells were harvested and their [^3H]-Thymidine incorporation was measured.

[3] = test system: VEGF secretion from HTB-133 and MDA-231 cells; experiment: CR11 and CR19 dependent inhibition of VEGF secretion from breast cancer cell lines (VEGF-165 ELISA of medium); assay type: cell-based; conditions: Homo sapiens, MDA-MB-231, 10^6 cells/ml incubated 5 hours with compound, washed, fresh medium 24 hours, FIGS. 6 and 7
Procedure: CR11 and CR19 dependent inhibition of VEGF secretion from breast cancer cell lines.
Procedure: 10^6 cells/ml of each of HTB-133 and MDA-231 cells were incubated for 5 hours with various concentrations of CR11 or CR19. Cells were washed twice in PBS to remove CR11 and CR19 and fresh medium was added for 24 hours. Medium was collected and analysed for the presence of VEGF using VEGF-165 ELISA kit (R&D Systems).

IC50 [1] | IC50 [3] | Compound | Effect of recombinant VEGF on the inhibition of HUVEC growth ([2]; 10 ng/ml recombinant VEGF added to the conditioned medium) | IC50 ([2]; Homo sapiens, medium of HTB-133 (KDR+) and HTB-131 (KDR-) cells treated 5 hrs with compound, transferred to HUVEC, [3H]-Thymidine incorporation)
10 to 30 nM | – | N#C/C(=C\C=C\c1ccc(O)c(O)c1)C(=O)NCc1ccccc1 [CR4, (E,E)-2-(Benzylaminocarbonyl)-3-(3,4-dihydroxystyryl)acrylonitrile] | rescued by recombinant VEGF | 20 to 30 nM
– | ~30 nM | COc1cc(/C=C/C=C(\C#N)C(=O)NCc2ccc(O)c(O)c2)cc(OC)c1O [CR11, (E,E)-2-(3,4-Dihydroxybenzylaminocarbonyl)-3-(3,5-dimethoxy-4-hydroxystyryl)acrylonitrile] | – | –
– | ~30 nM | N#C/C(=C\C=C\c1ccccc1)C(=O)NCc1ccc(O)c(O)c1 [CR19, (E,E)-2-(3,4 Dihydroxybenzylaminocarbonyl)-3-styrylacrylonitrile] | – | –
